Source: article PMC6547681 (Nature Communications, 2019)

Tested on: BCL-2 G101V
Assay: Steady-state competition SPR against immobilised BIMBH3 peptide, BCL-2 G101V
Assay type: binding, human
Procedure: SPR experiments were performed as previously described. […] The lowest concentrations used in direct binding experiments were 1 nM for BIAcore 4000 and 0.1 nM for BIAcore S200 instruments, concentrations below these were below the sensitivity thresholds for the instruments. […] Direct binding experiments were fitted to a 1:1 binding site kinetic model, fitting on and off rates, in BIAevaluation software. For competition experiments steady-state responses were determined in BIAevaluation software according to the software defaults in affinity evaluation mode averaging responses for 5 sec. […] All affinity measurements were performed in at least two independent experiments using independent protein preparations.

## O=C(c1cc(-c2cc3c(cc2C(=O)N2Cc4ccccc4C[C@H]2CN2CCOCC2)OCO3)n2c1CCCC2)N(c1ccccc1)c1ccc(O)cc1 [S55746]
BCL-2 G101V
  S55746 binding weaker than venetoclax: > 10 fold
S55746 concentration 20, BCL-2 concentration 10 nM, independent experiment 1
  Raw data values in Figure 3g (SPR response): 59.4981
S55746 concentration 20, BCL-2 concentration 10 nM, independent experiment 2
  Raw data values in Figure 3g (SPR response): 173.158
S55746 concentration 20, BCL-2 concentration 10 nM, independent experiment 3
  Raw data values in Figure 3g (SPR response): 34.4335
S55746 concentration 20, BCL-2 concentration 20 nM, independent experiment 1
  Raw data values in Figure 3g (SPR response): 71.3826
S55746 concentration 20, BCL-2 concentration 20 nM, independent experiment 2
  Raw data values in Figure 3g (SPR response): 232.183
S55746 concentration 20, BCL-2 concentration 20 nM, independent experiment 3
  Raw data values in Figure 3g (SPR response): 41.9552
S55746 concentration 20, BCL-2 concentration 30 nM, independent experiment 1
  Raw data values in Figure 3g (SPR response): 77.2987
S55746 concentration 20, BCL-2 concentration 30 nM, independent experiment 2
  Raw data values in Figure 3g (SPR response): 262.629
S55746 concentration 20, BCL-2 concentration 30 nM, independent experiment 3
  Raw data values in Figure 3g (SPR response): 45.3747
S55746 concentration 20, BCL-2 concentration 40 nM, independent experiment 1
  Raw data values in Figure 3g (SPR response): 80.4228
S55746 concentration 20, BCL-2 concentration 40 nM, independent experiment 2
  Raw data values in Figure 3g (SPR response): 280.533
S55746 concentration 20, BCL-2 concentration 40 nM, independent experiment 3
  Raw data values in Figure 3g (SPR response): 47.3992
S55746 concentration 20, BCL-2 concentration 50 nM, independent experiment 1
  Raw data values in Figure 3g (SPR response): 83.2844
S55746 concentration 20, BCL-2 concentration 50 nM, independent experiment 2
  Raw data values in Figure 3g (SPR response): 293.102
S55746 concentration 20, BCL-2 concentration 50 nM, independent experiment 3
  Raw data values in Figure 3g (SPR response): 48.7371
S55746 concentration 20, BCL-2 concentration 60 nM, independent experiment 1
  Raw data values in Figure 3g (SPR response): 85.1797
S55746 concentration 20, BCL-2 concentration 60 nM, independent experiment 2
  Raw data values in Figure 3g (SPR response): 302.908
S55746 concentration 20, BCL-2 concentration 60 nM, independent experiment 3
  Raw data values in Figure 3g (SPR response): 49.7741
S55746 concentration 20, BCL-2 concentration 70 nM, independent experiment 1
  Raw data values in Figure 3g (SPR response): 86.4751
S55746 concentration 20, BCL-2 concentration 70 nM, independent experiment 2
  Raw data values in Figure 3g (SPR response): 309.956
S55746 concentration 20, BCL-2 concentration 70 nM, independent experiment 3
  Raw data values in Figure 3g (SPR response): 50.4376
S55746 concentration 20, BCL-2 concentration 80 nM, independent experiment 1
  Raw data values in Figure 3g (SPR response): 87.9511
S55746 concentration 20, BCL-2 concentration 80 nM, independent experiment 2
  Raw data values in Figure 3g (SPR response): 316.608
S55746 concentration 20, BCL-2 concentration 80 nM, independent experiment 3
  Raw data values in Figure 3g (SPR response): 51.0592
S55746 concentration 20, BCL-2 concentration 100 nM, independent experiment 1
  Raw data values in Figure 3g (SPR response): 89.5861
S55746 concentration 20, BCL-2 concentration 100 nM, independent experiment 2
  Raw data values in Figure 3g (SPR response): 324.599
S55746 concentration 20, BCL-2 concentration 100 nM, independent experiment 3
  Raw data values in Figure 3g (SPR response): 51.7173
S55746 concentration 20, BCL-2 concentration 150 nM, independent experiment 1
  Raw data values in Figure 3g (SPR response): 91.8559
S55746 concentration 20, BCL-2 concentration 150 nM, independent experiment 2
  Raw data values in Figure 3g (SPR response): 337.351
S55746 concentration 20, BCL-2 concentration 150 nM, independent experiment 3
  Raw data values in Figure 3g (SPR response): 52.8108
S55746 concentration 20, BCL-2 concentration 200 nM, independent experiment 1
  Raw data values in Figure 3g (SPR response): 93.1192
S55746 concentration 20, BCL-2 concentration 250 nM, independent experiment 2
  Raw data values in Figure 3g (SPR response): 349.701
S55746 concentration 20, BCL-2 concentration 250 nM, independent experiment 3
  Raw data values in Figure 3g (SPR response): 53.5404
S55746 concentration 40, BCL-2 concentration 10 nM, independent experiment 1
  Raw data values in Figure 3g (SPR response): 53.0775
S55746 concentration 40, BCL-2 concentration 10 nM, independent experiment 2
  Raw data values in Figure 3g (SPR response): 142.314
S55746 concentration 40, BCL-2 concentration 10 nM, independent experiment 3
  Raw data values in Figure 3g (SPR response): 29.9924
S55746 concentration 40, BCL-2 concentration 20 nM, independent experiment 1
  Raw data values in Figure 3g (SPR response): 66.1797
S55746 concentration 40, BCL-2 concentration 20 nM, independent experiment 2
  Raw data values in Figure 3g (SPR response): 204.771
S55746 concentration 40, BCL-2 concentration 20 nM, independent experiment 3
  Raw data values in Figure 3g (SPR response): 38.5613
S55746 concentration 40, BCL-2 concentration 30 nM, independent experiment 1
  Raw data values in Figure 3g (SPR response): 73.4709
S55746 concentration 40, BCL-2 concentration 30 nM, independent experiment 2
  Raw data values in Figure 3g (SPR response): 240.258
S55746 concentration 40, BCL-2 concentration 30 nM, independent experiment 3
  Raw data values in Figure 3g (SPR response): 42.9042
S55746 concentration 40, BCL-2 concentration 40 nM, independent experiment 1
  Raw data values in Figure 3g (SPR response): 77.7102
S55746 concentration 40, BCL-2 concentration 40 nM, independent experiment 2
  Raw data values in Figure 3g (SPR response): 263.387
S55746 concentration 40, BCL-2 concentration 40 nM, independent experiment 3
  Raw data values in Figure 3g (SPR response): 45.6376
S55746 concentration 40, BCL-2 concentration 50 nM, independent experiment 1
  Raw data values in Figure 3g (SPR response): 81.3114
S55746 concentration 40, BCL-2 concentration 50 nM, independent experiment 2
  Raw data values in Figure 3g (SPR response): 278.636
S55746 concentration 40, BCL-2 concentration 50 nM, independent experiment 3
  Raw data values in Figure 3g (SPR response): 47.2724
S55746 concentration 40, BCL-2 concentration 60 nM, independent experiment 1
  Raw data values in Figure 3g (SPR response): 83.6106
S55746 concentration 40, BCL-2 concentration 60 nM, independent experiment 2
  Raw data values in Figure 3g (SPR response): 291.594
